Reference: PubChem BioAssay AID1963844 (Molecular Pharmacology Branch, DTP, NCI, 2024)

Test system: 422866-222-R5-J1-PDC complex spheroid viability
Test: Anticancer human tumor 422866-222-R5-J1-PDC patient-derived pancreatic adenocarcinoma cell line growth inhibition [POLQ]
Conditions: for IC50: curve of first compound; for viability, T/C: stronger effect = lower value
Experimental: Multicellular complex tumor spheroid response to Polymerase (POL) inhibitors (novobiocin, ART-558, RP6685) in combination with a variety of drugs and investigational agents in selected tumor cell lines
The POL inhibitors (novobiocin, ART-558, and RP6685) were evaluated both individually and in combination with standard of care and investigational anticancer small molecules within a complex spheroid model of solid tumors. . Complex spheroids include a stromal component modeled by human endothelial cells (HUVEC) and fibroblasts modeled by human mesenchymal stem cells (MSCs). The concentration ranges selected for each drug and investigational agent were based upon clinically achievable concentrations if the clinical Cmax of the agent was known.
Compounds. The drugs and investigational agents: novobiocin (NSC847541), ART-558 (NSC835418), RP-6685 (NSC848927), peposertib (NSC802822), ceralasertib (NSC780249), elimusertib (NSC800525), camonsertib (NSC841442), AZD-1390 (NSC803789), olaparib (NSC753686), talazoparib (NSC767125), rucaparib (NSC756644), sotorasib (NSC818433), MRTX-1133 (NSC836407), SN-38 (NSC673596), topotecan (NSC609699), epotoside (NSC141540), doxorubicin (NSC123127), gemcitabine (NSC613327), 5-fluorouracil (NSC19893), paclitaxel (NSC125973), vemurafenib (NSC761431), MSA-2 (NSC828583), SN-011 (NSC837082), adavosertib (NSC754352), prexasertib (NSC758257), carboplatin (NSC241240) and oxaliplatin (NSC266046), were obtained from the National Cancer Institute (NCI) Developmental Therapeutics Program Chemical Repository (21). The FDA-approved anticancer drug set is available from the Developmental Therapeutics Program at https://dtp.cancer.gov/organization/dscb/obtaining/. […] The stock solutions were prepared in dimethyl sulfoxide (DMSO, Sigma-Aldrich, St. Louis, MO, cat. D2650), except for the platinum compounds which were prepared in saline (Quality Biological, Gaithersburg, MD, cat. 114-055-101), at 800-fold the tested concentration and stored at -70 degrees C prior to their use. All drugs and investigational agents were tested over a range starting from a high concentration at or near the clinical Cmax and decreasing in half-log increments. If the clinical Cmax for an agent had not been determined, the highest concentration tested was 10 microM, except for SN-38, which was tested at a high concentration of 1 microM.
Cell Culture. All cells were maintained in an incubator at 37 degrees C and 5% CO2 with 95% humidity. The PDC lines were cultured according to standard operating procedures established by the NCI PDMR (https://pdmr.cancer.gov). Table 3 of the manuscript, lists the cell lines along with the number of the three cell types plated to form the mct-spheroids and media for tumor cell growth. After thawing, all PDC lines, except 997537-175-T-J1-PDC and 415267-285-R-J2-PDC, were cultured in Matrigel-coated flasks prepared with a working solution of 1X Ham's F-12 nutrient mix, without supplementation (Thermo Fisher Scientific, cat. 11765054), 100 U/mL penicillin-streptomycin (Thermo Fisher Scientific, cat. 15140122), and 2.5% Matrigel (Corning Inc., Corning, NY, cat. 354248) for the first three passages. The two PDC lines 997537-175-T-J1-PDC and 415267-285-R-J2-PDC were cultured on uncoated flasks. The 857933-349-R-J2-PDC line was cultured in 6C/Colon 1B media containing advanced DMEM/F-12 (Thermo Fisher Scientific, cat. 12634028), 10 mM HEPES (Thermo Fisher Scientific, cat. 15630080), 1X GlutaMAX supplement (Thermo Fisher Scientific, cat. 35050061), 0.1 mg/mL primocin (InvivoGen, San Diego, CA, cat. ant-pm-2), 10% defined fetal bovine serum, heat inactivated (HyClone Laboratories Inc., Logan, UT, cat. SH30070.03HI), 50% L-WRN conditioned media (ATCC, cat. CRL-3276), 1.25 mM N-Acetyl-L-cysteine (Sigma-Aldrich, cat. A9165), 10 mM nicotinamide (Sigma-Aldrich, cat. N0636), 1X B-27 supplement (Thermo Fisher Scientific, cat. 17504044), 1X N-2 supplement (Thermo Fisher Scientific, cat. […]

[1] = second compound 0.0316 µM, first compound 0.0316 µM
[2] = second compound 0.0316 µM, first compound 0.1 µM
[3] = second compound 0.0316 µM, first compound 0.316 µM
[4] = second compound 0.0316 µM, first compound 1 µM
[5] = second compound 0.1 µM, first compound 0.0316 µM
[6] = second compound 0.1 µM, first compound 0.1 µM
[7] = second compound 0.1 µM, first compound 0.316 µM
[8] = second compound 0.1 µM, first compound 1 µM
[9] = second compound 0.316 µM, first compound 0.0316 µM
[10] = second compound 0.316 µM, first compound 0.1 µM
[11] = second compound 0.316 µM, first compound 0.316 µM
[12] = second compound 0.316 µM, first compound 1 µM
[13] = second compound 1 µM, first compound 0.0316 µM
[14] = second compound 1 µM, first compound 0.1 µM
[15] = second compound 1 µM, first compound 0.316 µM
[16] = second compound 1 µM, first compound 1 µM
[17] = second compound 3.16 µM, first compound 0.0316 µM
[18] = second compound 3.16 µM, first compound 0.1 µM
[19] = second compound 3.16 µM, first compound 0.316 µM
[20] = second compound 3.16 µM, first compound 1 µM
[21] = second compound 10 µM, first compound 0.0316 µM
[22] = second compound 10 µM, first compound 0.1 µM
[23] = second compound 10 µM, first compound 0.316 µM
[24] = second compound 10 µM, first compound 1 µM
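Note: spheroids exposed to compounds for one week before readout.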
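Throughout, for viability, T/C: percent of DMSO vehicle wells luminescence so 100% = untreated viability.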

In the case of `COc1cccc(OCCCN)c1-c1cc(Nc2cnc(C#N)cn2)n[nH]1` + COC1C(OC(N)=O)C(O)C(Oc2ccc3c(O)c(NC(=O)c4ccc(O)c(CC=C(C)C)c4)c(=O)oc3c2C)OC1(C)C, the IC50 (second compound 0.0316 µM) is reported as 4.59 nM, the IC50 (second compound 0.1 µM) is reported as 4.16 nM and the IC50 (second compound 0.316 µM) is reported as < 3.16 nM. The IC50 (second compound 1 µM) was < 3.16 nM, the IC50 (second compound 3.16 µM) was 5.14 nM and the IC50 (second compound 10 µM) was < 3.16 nM. For the same compound, the viability, T/C (second compound 0.0316 µM, first compound 0.00316 µM) was 55.9%, the viability, T/C (second compound 0.0316 µM, first compound 0.01 µM) was 37.4% and the viability, T/C [1] was 33.7%. It also gave a viability, T/C [2] of 30.7%, a viability, T/C [3] of 26.7% and a viability, T/C [4] of 34.3%. It also gave a viability, T/C (second compound 0.1 µM, first compound 0.00316 µM) of 53%, a viability, T/C (second compound 0.1 µM, first compound 0.01 µM) of 42.1% and a viability, T/C [5] of 32.3%. For the same compound, the viability, T/C [6] was 29.5%, the viability, T/C [7] was 26.8% and the viability, T/C [8] was 42.6%. It also gave a viability, T/C (second compound 0.316 µM, first compound 0.00316 µM) of 48.5%, a viability, T/C (second compound 0.316 µM, first compound 0.01 µM) of 39.9% and a viability, T/C [9] of 28.5%. The viability, T/C [10] was 37.7%, the viability, T/C [11] was 32.1% and the viability, T/C [12] was 35.1%. The viability, T/C (second compound 1 µM, first compound 0.00316 µM) was 55.9%, the viability, T/C (second compound 1 µM, first compound 0.01 µM) was 39.3% and the viability, T/C [13] was 32.7%. It also gave a viability, T/C [14] of 37.3%, a viability, T/C [15] of 32.7% and a viability, T/C [16] of 47%. The viability, T/C (second compound 3.16 µM, first compound 0.00316 µM) was 54.7%, the viability, T/C (second compound 3.16 µM, first compound 0.01 µM) was 43% and the viability, T/C [17] was 41.4%. For the same compound, the viability, T/C [18] was 30.1%, the viability, T/C [19] was 41.2% and the viability, T/C [20] was 32.8%. It also gave a viability, T/C (second compound 10 µM, first compound 0.00316 µM) of 54.2%, a viability, T/C (second compound 10 µM, first compound 0.01 µM) of 38.7% and a viability, T/C [21] of 39.1%. The viability, T/C [22] was 38%, the viability, T/C [23] was 30.9% and the viability, T/C [24] was 38.4%.
`Nc1ccn(C2OC(CO)C(O)C2(F)F)c(=O)n1` (centres undefined) + COC1C(OC(N)=O)C(O)C(Oc2ccc3c(O)c(NC(=O)c4ccc(O)c(CC=C(C)C)c4)c(=O)oc3c2C)OC1(C)C gave an IC50 (second compound 0.0316 µM) of 110 nM, an IC50 (second compound 0.1 µM) of 94 nM and an IC50 (second compound 0.316 µM) of 105 nM. For the same compound, the IC50 (second compound 1 µM) was 74.6 nM, the IC50 (second compound 3.16 µM) was 139 nM and the IC50 (second compound 10 µM) was 67.4 nM. For the same compound, the viability, T/C [1] was 73.5%, the viability, T/C [2] was 49.9% and the viability, T/C [3] was 40.9%. The viability, T/C [4] was 33.1%, the viability, T/C (second compound 0.0316 µM, first compound 3.16 µM) was 28% and the viability, T/C (second compound 0.0316 µM, first compound 10 µM) was 32%. For the same compound, the viability, T/C [5] was 75.6%, the viability, T/C [6] was 47.7% and the viability, T/C [7] was 40.9%. It also gave a viability, T/C [8] of 33.7%, a viability, T/C (second compound 0.1 µM, first compound 3.16 µM) of 32.6% and a viability, T/C (second compound 0.1 µM, first compound 10 µM) of 36.2%. It also gave a viability, T/C [9] of 74%, a viability, T/C [10] of 48.2% and a viability, T/C [11] of 42.5%. For the same compound, the viability, T/C [12] was 36.1%, the viability, T/C (second compound 0.316 µM, first compound 3.16 µM) was 31.7% and the viability, T/C (second compound 0.316 µM, first compound 10 µM) was 33.4%. For the same compound, the viability, T/C [13] was 67.3%, the viability, T/C [14] was 43.1% and the viability, T/C [15] was 41%. It also gave a viability, T/C [16] of 36.1%, a viability, T/C (second compound 1 µM, first compound 3.16 µM) of 38.4% and a viability, T/C (second compound 1 µM, first compound 10 µM) of 34.3%. The viability, T/C [17] was 61.5%, the viability, T/C [18] was 54.5% and the viability, T/C [19] was 38.8%. The viability, T/C [20] was 37.2%, the viability, T/C (second compound 3.16 µM, first compound 3.16 µM) was 34.5% and the viability, T/C (second compound 3.16 µM, first compound 10 µM) was 38.6%. For the same compound, the viability, T/C [21] was 62.7%, the viability, T/C [22] was 43.7% and the viability, T/C [23] was 37.5%. For the same compound, the viability, T/C [24] was 35.7%, the viability, T/C (second compound 10 µM, first compound 3.16 µM) was 39% and the viability, T/C (second compound 10 µM, first compound 10 µM) was 35.4%.
